Measurements published in PMC10931479, “Exploration of hypoglycemic peptides from porcine collagen based on network pharmacology and molecular docking” (PLOS ONE, 2024).
“Also recorded” adds a separate entry of the source.

System: α-glucosidase
Test: not given
Settings: peptides from silkworm pupae; cited from earlier work
Source text: (§1) At present, dietary proteins isolated from black beans, fermented soybean, balsam pear, and other sources have been identified as having anti-diabetic peptide properties. In vitro experiments have confirmed the hypoglycemic effects of many of these peptides, with some outperforming clinical drugs. […] He L, et al. isolated five peptides (GPVGPPG, GPPGPT, APGGAP, FGPGP, and GPVG) from bovine skin colla ...

Substance | Suppression of α-glucosidase activity
QPPT [peptide from silkworm pupae] | can suppress α-glucosidase activity
SQSPA [peptide from silkworm pupae] | can suppress α-glucosidase activity
NSPR [peptide from silkworm pupae] | can suppress α-glucosidase activity
QPGR [peptide from silkworm pupae] | can suppress α-glucosidase activity

System: not given
Test: not given
Settings: peptides from bovine skin collagen; cited from earlier work
Source text: as §1

Substance | Anti-diabetic properties
APGGAP [peptide from bovine skin collagen] | exhibited anti-diabetic properties
GPVGPPG [peptide from bovine skin collagen] | exhibited anti-diabetic properties
GPVG [peptide from bovine skin collagen] | exhibited anti-diabetic properties
FGPGP [peptide from bovine skin collagen] | exhibited anti-diabetic properties
GPPGPT [peptide from bovine skin collagen] | exhibited anti-diabetic properties

System: α-glucosidase
Test: α-Glucosidase activity inhibition test (pNPG)
Assay type: biochemical
Settings: 0.1 to 0.7 mg/mL; in vitro; comparison with acarbose where stated
Method: The samples were prepared at different concentrations (1-7 mg/mL), and the following compounds were prepared: α-glucosidase (0.1 Ua), PBS (pH 6.8, 0.05 mol/L), PNPG (2.5 mmol/L), and Na2CO3 (1 mol/L). The control, sample blank, and sample groups were incubated at their appropriate temperature and time, and the absorbance at 405 nm was measured using a microplate reader. The inhibitory activity was calculated using Eq (2). The inhibition rate of α-glucosidase was solved according to the concentration of different mass samples. The IC50 values were calculated based on the fitting curves. […] All experiments were conducted in triplicate and the data are expressed as the mean ± standard deviation (SD). Statistical analysis was performed using SPSS 27.0 software with Duncan's multiple and one-way ANOVA tests to determine the differences among the mean values. The mapping was done using prism and bioinformatics tools (http://www.bioinformatics.com.cn/).

Substance | Inhibition of α-glucosidase in words
NWYR [tetrapeptide from in silico trypsin hydrolysis of porcine collagen BAX02569.1, synthesized by solid-phase synthesis] | significantly inhibited α-glucosidase activity in a concentration-dependent manner; also recorded: no significant difference between them and acarbose; also recorded: the inhibitory effect of NWYR was stronger
